In patent publication US10968203B2, “Pyrimidinyl-pyridyloxy-naphthyl compounds and methods of treating IRE1-related diseases and disorders” (Genentech, Inc., priority 2017, dated 2021):
pIC50: −log10 of the molar value. Counter-ions that a name gives are not always drawn.

tested on: XBP1s-luc 293 LUC; assay: cellular PD assay, XBP1s-LUC reporter (Example 903); type: cell-based; settings: Table 1; read-out: XBP1s-luc 293 LUC (IC50)
Method in brief: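 A luciferase fusion, in frame and expressed only when the XBP1 transcript is spliced, served as the readout of cellular IRE1α activity in an XBP1-Luc reporter line.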

SMILES	pIC50
Cc1ccc2c(N3CCC(C)(C)C3=O)cccc2c1Oc1ncccc1-c1ccnc(N[C@H]2CCCNC2)n1 [Example 238, (S)-3,3-Dimethyl-1-(6-methyl-5-((3-(2-(piperidin-3-ylamino)pyrimidin-4-yl)pyridin-2-yl)oxy)naphthalen-1-yl)pyrrolidin-2-one]	6.56
Cc1ccc2c(Oc3ccccn3)cccc2c1Oc1ncccc1-c1ccnc(N[C@H]2CCCNC2)n1 [Example 239, (S)-4-(2-((2-Methyl-5-(pyridin-2-yloxy)naphthalen-1-yl)oxy)pyridin-3-yl)-N-(piperidin-3-yl)pyrimidin-2-amine]	6.61
CCCS(=O)(=O)Nc1cccc2c(Oc3ncc(C)cc3-c3ccnc(N[C@H]4CCCNC4)n3)c(C)ccc12 [Example 240, (S)—N-(6-Methyl-5-((5-methyl-3-(2-(piperidin-3-ylamino)pyrimidin-4-yl)pyridin-2-yl)oxy)naphthalen-1-yl)propane-1-sulfonamide]	6.78
Cc1ccc2c(NCCCF)cccc2c1Oc1ncccc1-c1ccnc(N[C@H]2CCCNC2)n1 [Example 241, (S)-4-(2-((5-((3-Fluoropropyl)amino)-2-methylnaphthalen-1-yl)oxy)pyridin-3-yl)-N-(piperidin-3-yl)pyrimidin-2-amine]	6.85
Cc1ccc2c(NC(=O)C3(CF)CC3)cccc2c1Oc1ncccc1-c1ccnc(N[C@H]2CCCNC2)n1 [Example 242, (S)-1-(Fluoromethyl)-N-(6-methyl-5-((3-(2-(piperidin-3-ylamino)pyrimidin-4-yl)pyridin-2-yl)oxy)naphthalen-1-yl)cyclopropane-1-carboxamide]	6.44
Cc1ccc2c(NS(=O)(=O)CCC(C)C)c(F)ccc2c1Oc1ncccc1-c1ccnc(N[C@H]2CCCNC2)n1 [Example 243, (S)—N-(2-Fluoro-6-methyl-5-((3-(2-(piperidin-3-ylamino)pyrimidin-4-yl)pyridin-2-yl)oxy)naphthalen-1-yl)-3-methylbutane-1-sulfonamide]	7.17
Cc1nc(CNc2cccc3c(Oc4ncccc4-c4ccnc(N[C@H]5CCCNC5)n4)c(C)ccc23)cs1 [Example 244, (S)-4-(2-((2-Methyl-5-(((2-methylthiazol-4-yl)methyl)amino)naphthalen-1-yl)oxy)pyridin-3-yl)-N-(piperidin-3-yl)pyrimidin-2-amine]	7.92
Cc1ccc2c(-n3nccc3C)cccc2c1Oc1ccccc1-c1ccnc(N[C@H]2CCCNC2)n1 [Example 246, (S)-4-(2-((2-Methyl-5-(5-methyl-1H-pyrazol-1-yl)naphthalen-1-yl)oxy)phenyl)-N-(piperidin-3-yl)pyrimidin-2-amine]	6.63
Cc1ccc2c(N3CCN(C)S3(=O)=O)cccc2c1Oc1ncccc1-c1ccnc(N[C@H]2CCCNC2)n1 [Example 247, (S)-2-Methyl-5-(6-methyl-5-((3-(2-(piperidin-3-ylamino)pyrimidin-4-yl)pyridin-2-yl)oxy)naphthalen-1-yl)-1,2,5-thiadiazolidine 1,1-dioxide]	6.44
Cc1ccc2c(N3CCCCCC3=O)cccc2c1Oc1ncccc1-c1ccnc(N[C@H]2CCCNC2)n1 [Example 249, (S)-1-(6-Methyl-5-((3-(2-(piperidin-3-ylamino)pyrimidin-4-yl)pyridin-2-yl)oxy)naphthalen-1-yl)azepan-2-one]	6.51
Cc1ccn(-c2cccc3c(Oc4ncccc4-c4ccnc(N[C@H]5CCCNC5)n4)c(C)ccc23)n1 [Example 250, (S)-4-(2-((2-methyl-5-(3-methyl-1H-pyrazol-1-yl)naphthalen-1-yl)oxy)pyridin-3-yl)-N-(piperidin-3-yl)pyrimidin-2-amine]	6.59
Cc1ccc2c(NC(=O)C3CCCC3(F)F)cccc2c1Oc1ncccc1-c1ccnc(N[C@H]2CCCNC2)n1 (stereo partly drawn) [Example 251, 2,2-Difluoro-N-(6-methyl-5-((3-(2-(((S)-piperidin-3-yl)amino)pyrimidin-4-yl)pyridin-2-yl)oxy)naphthalen-1-yl)cyclopentane-1-carboxamide]	6.84
Cc1ccc2c(NC(=O)CC(F)(F)F)cccc2c1Oc1ncccc1-c1ccnc(N[C@H]2CCCNC2)n1 [Example 252, (S)-3,3,3-Trifluoro-N-(6-methyl-5-(3-(2-(piperidin-3-ylamino)pyrimidin-4-yl)pyridin-2-yloxy)naphthalen-1-yl)propanamide]	6.87
Cc1ccc2c(NC(=O)C3CC4(CCC4)C3)cccc2c1Oc1ncccc1-c1ccnc(N[C@H]2CCCNC2)n1 [Example 255, (S)—N-(6-Methyl-5-((3-(2-(piperidin-3-ylamino)pyrimidin-4-yl)pyridin-2-yl)oxy)naphthalen-1-yl)spiro[3.3]heptane-2-carboxamide]	6.74
Cc1ccc2c(NCc3csc(C(C)C)n3)cccc2c1Oc1ncccc1-c1ccnc(N[C@H]2CCCNC2)n1 [Example 256, (S)-4-(2-((5-(((2-Isopropylthiazol-4-yl)methyl)amino)-2-methylnaphthalen-1-yl)oxy)pyridin-3-yl)-N-(piperidin-3-yl)pyrimidin-2-amine]	6.68
Cc1ccc2c(Nc3cc(C)n(C)n3)cccc2c1Oc1ncccc1-c1ccnc(N[C@H]2CCCNC2)n1 [Example 258, (S)-4-(2-((5-((1,5-Dimethyl-1H-pyrazol-3-yl)amino)-2-methylnaphthalen-1-yl)oxy)pyridin-3-yl)-N-(piperidin-3-yl)pyrimidin-2-amine]	6.38
CCCS(=O)(=O)Nc1cccc2c(Oc3ncc(CC)cc3-c3ccnc(N[C@H]4CCCNC4)n3)c(C)ccc12 [Example 259, (S)—N-(5-((5-ethyl-3-(2-(piperidin-3-ylamino)pyrimidin-4-yl)pyridin-2-yl)oxy)-6-methylnaphthalen-1-yl)propane-1-sulfonamide]	6.44
Cc1ccc2c(NCCc3cscn3)cccc2c1Oc1ncccc1-c1ccnc(N[C@H]2CCCNC2)n1 [Example 260, (S)-4-(2-((2-Methyl-5-((2-(thiazol-4-yl)ethyl)amino)naphthalen-1-yl)oxy)pyridin-3-yl)-N-(piperidin-3-yl)pyrimidin-2-amine]	6.99
Cc1ccc2c(NCc3ccccn3)cccc2c1Oc1ncccc1-c1ccnc(N[C@H]2CCCNC2)n1 [Example 261, (S)-4-(2-((2-Methyl-5-((pyridin-2-ylmethyl)amino)naphthalen-1-yl)oxy)pyridin-3-yl)-N-(piperidin-3-yl)pyrimidin-2-amine]	6.66
Cc1ccc2c(NCc3ccn(C)n3)cccc2c1Oc1ncccc1-c1ccnc(N[C@H]2CCCNC2)n1 [Example 262, (S)-4-(2-((2-Methyl-5-(((1-methyl-1H-pyrazol-3-yl)methyl)amino)naphthalen-1-yl)oxy)pyridin-3-yl)-N-(piperidin-3-yl)pyrimidin-2-amine]	6.77
Cc1ccc2c(NC(=O)C(C)C)cccc2c1Oc1ncccc1-c1ccnc(N[C@H]2CCCNC2)n1 [Example 263, (S)—N-(6-Methyl-5-((3-(2-(piperidin-3-ylamino)pyrimidin-4-yl)pyridin-2-yl)oxy)naphthalen-1-yl)isobutyramide hydrochloride]	6.44
Cc1ccc2c(NC(=O)CC3(C)CCCCC3)cccc2c1Oc1ncccc1-c1ccnc(N[C@H]2CCCNC2)n1 [Example 264, (S)—N-(6-Methyl-5-((3-(2-(piperidin-3-ylamino)pyrimidin-4-yl)pyridin-2-yl)oxy)naphthalen-1-yl)-2-(1-methylcyclohexyl)acetamide hydrochloride]	6.46
Cc1ccc2c(NCc3cnn(C)c3)cccc2c1Oc1ncccc1-c1ccnc(N[C@H]2CCCNC2)n1 [Example 265, (S)-4-(2-((2-Methyl-5-(((1-methyl-1H-pyrazol-4-yl)methyl)amino)naphthalen-1-yl)oxy)pyridin-3-yl)-N-(piperidin-3-yl)pyrimidin-2-amine]	6.41
Cc1ccc2c(NC(=O)CC3(C)CCCC3)cccc2c1Oc1ncccc1-c1ccnc(N[C@H]2CCCNC2)n1 [Example 267, (S)—N-(6-Methyl-5-((3-(2-(piperidin-3-ylamino)pyrimidin-4-yl)pyridin-2-yl)oxy)naphthalen-1-yl)-2-(1-methylcyclopentyl)acetamide]	6.79
Cc1ccc2c(NC(=O)CC3(C)CC3)cccc2c1Oc1ncccc1-c1ccnc(N[C@H]2CCCNC2)n1 [Example 268, (S)—N-(6-Methyl-5-((3-(2-(piperidin-3-ylamino)pyrimidin-4-yl)pyridin-2-yl)oxy)naphthalen-1-yl)-2-(1-methylcyclopropyl)acetamide]	6.59
Cc1ccc2c(NC(=O)C3CC3)c(F)ccc2c1Oc1ncccc1-c1ccnc(N[C@H]2CCCNC2)n1 [Example 271, (S)—N-(2-Fluoro-6-methyl-5-((3-(2-(piperidin-3-ylamino)pyrimidin-4-yl)pyridin-2-yl)oxy)naphthalen-1-yl)cyclopropanecarboxamide]	6.57
CCn1ccc(Nc2cccc3c(Oc4ncccc4-c4ccnc(N[C@H]5CCCNC5)n4)c(C)ccc23)n1 [Example 272, (S)-4-(2-((5-((1-Ethyl-1H-pyrazol-3-yl)amino)-2-methylnaphthalen-1-yl)oxy)pyridin-3-yl)-N-(piperidin-3-yl)pyrimidin-2-amine]	6.33
Cc1ccc2c(NC(=O)CC(C)(C)C)c(F)ccc2c1Oc1ncccc1-c1ccnc(N[C@H]2CCCNC2)n1 [Example 275, (S)—N-(2-Fluoro-6-methyl-5-((3-(2-(piperidin-3-ylamino)pyrimidin-4-yl)pyridin-2-yl)oxy)naphthalen-1-yl)-3,3-dimethylbutanamide]	7.12
Cc1ccc2c(NS(=O)(=O)CCC(F)(F)F)c(F)ccc2c1Oc1ncccc1-c1ccnc(N[C@H]2CCCNC2)n1 [Example 276, (S)-3,3,3-Trifluoro-N-(2-fluoro-6-methyl-5-((3-(2-(piperidin-3-ylamino)pyrimidin-4-yl)pyridin-2-yl)oxy)naphthalen-1-yl)propane-1-sulfonamide hydrochloride]	7.36
Cc1ccc2c(NS(=O)(=O)CC(C)C)c(F)ccc2c1Oc1ncccc1-c1ccnc(N[C@H]2CCCNC2)n1 [Example 279, (S)—N-(2-Fluoro-6-methyl-5-((3-(2-(piperidin-3-ylamino)pyrimidin-4-yl)pyridin-2-yl)oxy)naphthalen-1-yl)-2-methylpropane-1-sulfonamide]	7.61
